In the supplement of paper PMC10307832:

Key:
Experiment in all cases: relative viability (nuclei count vs DMSO), 5 days (fraction); higher = more cells survive
[1] = compound: C1CC1C(=O)NC2=NNC3=C2C=CC(=C3)C4=CC(=CC=C4)C(=O)NC5CC5 [XMD13-2] + O=C(c1cc(Cc2n[nH]c(=O)c3ccccc23)ccc1F)N1CCN(C(=O)C2CC2)CC1 [Olaparib] (partner 8 µM)
How it was run: (§1)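 Relative viability divides the nuclei count in treated wells by that in vehicle wells. Lung cancer cell lines were seeded in 1536-well plates, dosed by pin tool the next day, and fixed and stained after 5 days in one step with final 0.05% Triton X-100, 1% formaldehyde and 1 ug/ml Hoechst. Dosing was a single drug or a fixed anchor-drug dose plus five library-drug doses (not always all listed) in √10 steps, and values are medians of duplicate plates imaged at 4×.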

[2] = compound: Cc1nc(Nc2ncc(C(=O)Nc3c(C)cccc3Cl)s2)cc(N2CCN(CCO)CC2)n1 [Dasatinib] + CS(=O)(=O)CCNCc1ccc(-c2ccc3ncnc(Nc4ccc(OCc5cccc(F)c5)c(Cl)c4)c3c2)o1 [Lapatinib] (partner 2 µM)
How it was run: as §1

[3] = compound: Cc1nc(Nc2ncc(C(=O)Nc3c(C)cccc3Cl)s2)cc(N2CCN(CCO)CC2)n1 [Dasatinib] + C[C@]1(O)C[C@@H](c2nc(-c3ccc4ccc(-c5ccccc5)nc4c3)c3c(N)nccn32)C1 [Linsitinib] (partner 1 µM)
How it was run: as §1

[4] = compound: C1CC1C(=O)NC2=NNC3=C2C=CC(=C3)C4=CC(=CC=C4)C(=O)NC5CC5 [XMD13-2]
How it was run: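 Viability is treated-well nuclei as a fraction of vehicle-well nuclei, reported as the median across plates. Before counting, lung cancer cell lines were kept overnight at 37 °C in 1536-well plates, pinned with five √10-spaced library-drug doses on vehicle-anchored plates, and left 5 days without medium change, then fixed, permeabilised and Hoechst-stained in one step, imaged at 4× and counted by MetaXpress. A plate passed only if control CV was below 25% and at least one doubling occurred.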

Row | Cell Line | relative viability ([1]; first compound 0.05 µM) | relative viability ([1]; first compound 0.1581 µM) | relative viability ([1]; first compound 0.5 µM) | relative viability ([1]; first compound 1.581 µM) | relative viability ([1]; first compound 5 µM) | relative viability ([2]; first compound 0.005 µM) | relative viability ([2]; first compound 0.01581 µM) | relative viability ([2]; first compound 0.05 µM) | relative viability ([2]; first compound 0.1581 µM) | relative viability ([2]; first compound 0.5 µM) | relative viability ([3]; first compound 0.005 µM) | relative viability ([3]; first compound 0.01581 µM) | relative viability ([3]; first compound 0.05 µM) | relative viability ([3]; first compound 0.1581 µM) | relative viability ([3]; first compound 0.5 µM) | relative viability ([4]; 0.05 µM) | relative viability ([4]; 0.1581 µM) | relative viability ([4]; 0.5 µM) | relative viability ([4]; 1.581 µM) | relative viability ([4]; 5 µM)
1 | NCI-H1355 | 0.755 | 0.716 | 0.807 | 0.762 | 0.773 | 0.988 | 0.902 | 0.898 | 0.704 | 0.49 | 0.686 | 0.597 | 0.667 | 0.428 | 0.369 | 1.12 | 0.961 | 0.995 | 0.949 | 1.02
2 | NCI-H1395 | 0.48 | 0.493 | 0.46 | 0.477 | 0.504 | 0.926 | 0.954 | 0.678 | 0.479 | 0.466 | 1.24 | 1.05 | 0.887 | 0.451 | 0.343 | 1.06 | 0.918 | 0.948 | 0.852 | 1
3 | NCI-H1437 | 0.61 | 0.617 | 0.64 | 0.64 | 0.634 | 0.785 | 0.784 | 0.809 | 0.752 | 0.218 | 1.02 | 1.03 | 1.09 | 0.859 | 0.377 | 0.984 | 0.992 | 1.02 | 0.941 | 1.06
4 | NCI-H1651 | 0.174 | 0.206 | 0.19 | 0.184 | 0.188 | 0.864 | 0.573 | 0.648 | 0.625 | 0.489 | 0.894 | 0.746 | 0.551 | 0.474 | 0.498 | 1.06 | 0.95 | 1.03 | 1.02 | 1.04
5 | NCI-H1666 | 0.752 | 0.736 | 0.793 | 0.742 | 0.777 | 0.582 | 0.482 | 0.522 | 0.447 | 0.224 | 0.806 | 0.595 | 0.788 | 0.464 | 0.288 | 1.05 | 1.05 | 0.997 | 0.994 | 0.964
6 | NCI-H1703 | 0.503 | 0.417 | 0.38 |  | 0.372 | 0.638 | 0.326 | 0.429 | 0.185 | 0.16 | 0.139 | 0.29 | 0.247 | 0.0903 | 0.144 | 1.29 | 1.33 | 1.05 | 0.764 | 1.06
7 | NCI-H1734 | 0.769 | 0.628 | 0.616 | 0.594 | 0.523 | 1.02 | 0.755 | 0.894 | 0.508 | 0.531 | 0.678 | 0.693 | 0.64 | 0.394 | 0.331 | 1.1 | 0.848 | 1.03 | 0.869 | 0.748
8 | NCI-H1755 | 0.878 | 0.892 | 0.94 | 0.91 | 0.84 | 0.957 | 0.714 | 0.749 | 0.622 | 0.246 | 0.795 | 0.743 | 0.642 | 0.391 | 0.171 | 1.07 | 0.997 | 0.994 | 0.985 | 1.04
9 | NCI-H1792 | 0.628 | 0.385 | 0.428 | 0.383 | 0.573 | 0.885 | 0.859 | 0.907 | 0.673 | 0.364 | 0.491 | 0.355 | 0.377 | 0.219 | 0.0845 | 1.09 | 0.907 | 0.925 | 0.808 | 1.12
10 | NCI-H1793 | 1.23 | 0.812 | 0.95 | 0.927 | 0.983 | 0.587 | 0.46 | 0.349 | 0.622 | 0.58 | 0.524 | 0.644 | 0.553 | 0.506 | 0.472 | 1.27 | 0.721 | 1.07 | 0.977 | 1.12
11 | NCI-H1915 | 0.273 | 0.253 | 0.287 | 0.254 | 0.269 | 0.939 | 0.892 | 0.87 | 0.382 | 0.242 | 1.11 | 1.03 | 0.921 | 0.488 | 0.288 | 1.02 | 0.958 | 1.08 | 0.985 | 1
12 | NCI-H1944 | 0.454 | 0.402 | 0.408 | 0.55 | 0.414 | 0.598 | 0.736 | 0.577 | 0.334 | 0.268 | 1.15 | 1.34 | 0.787 | 0.419 | 0.276 | 1.11 | 0.958 | 1.06 | 1.18 | 0.977
13 | NCI-H1975 | 0.89 | 0.798 | 0.828 | 0.871 | 0.792 | 0.779 | 0.701 | 0.595 | 0.419 | 0.23 | 0.86 | 0.713 | 0.851 | 0.286 | 0.243 | 1.23 | 1.01 | 0.98 | 1.1 | 0.961
14 | NCI-H1993 | 1.1 | 0.924 | 0.507 | 0.813 | 0.952 | 0.761 | 0.771 | 0.776 | 0.731 | 0.737 | 0.61 | 0.756 | 0.675 | 0.629 | 0.597 | 1.07 | 0.895 | 0.885 | 0.822 | 0.925
15 | NCI-H2009 | 0.663 | 0.685 | 0.727 | 0.673 | 0.745 | 1.13 | 1 | 0.96 | 0.305 | 0.151 | 1.21 | 1.02 | 1.23 | 0.821 | 0.193 | 0.989 | 1.13 | 1.22 | 1.04 | 1.07
16 | NCI-H2023 | 0.567 | 0.472 | 0.504 | 0.492 | 0.507 | 0.584 | 0.703 | 0.742 | 0.758 | 0.64 | 0.439 | 0.384 | 0.426 | 0.329 | 0.188 | 1.18 | 1 | 0.992 | 0.986 | 1.02
